Laboratory results: patent publication US5583142A, “Analgesic and nootropic drugs” (priority 1992, dated 1996)
Where two headings read alike, the source gives them in different places.

Experiments:
[1] = tested on: presynaptic muscarinic autoreceptor; details: cited from earlier work
[2] = mouse passive avoidance test, amnesia induced by hypoxia; type: in vivo; details: 30 to 300 mg/kg i.p.
Procedure: The nootropic action (learning facilitation, memory enhancement, intelligence booster, cognition activation) was assessed both in mouse and in rat by the two following methods: the mouse was tested by the passive avoidance method, using the so-called light-dark box. A painful stimulus, i.e. an electrically-evoked shock through the animal paws, and an unpleasant but not painful stimulus (mice fall into a water-ice mixture ensuing a sudden dark box floor opening) were used. A non-painful stimulus was required because the data referred to learning had not to be untruthfully negative due to the analgesic action of the claimed molecules. The painful stimulus (electric shock), like the unpleasant but not painful one, was effective at the interval of doses at which the claimed molecules were clearly nootropic but not yet analgesic. Independently of the type of stimulus used, the procedure consists of two experimental phases denominated, respectively, Training and Retention, the latter being carried out 24 hrs after the former. […] To this purpose the time taken by mice to enter the dark box is measured again: the longer the time recorded in the second day when compared with the first (Retention minus Training), the higher the mice learning and memorizing capabilities. […]

[3] = mouse
Procedure: In FIGS. 7 and 7 bis vertical lines give s.e. mean. Each column represents the mean of 6-10 mice. SM-21 maleate, PG-9 maleate, SM-32 oxalate, cocaine HCl, amphetamine sulphate and caffeine were administered 15 min before test.

For `CCCCN1CCCCC1C(=O)Nc1c(C)cccc1C` (stereo not drawn) [bupivacaine], the “selectivity and efficacy as antagonists of the presynaptic muscarinic autoreceptor” value (shortened to “selectivity and efficacy as antagonists”) [1] is given as “little selective as well as little efficacious”.
For `CCN(CC)CCOC(=O)c1ccc(N)cc1` [procaine], the “selectivity and efficacy as antagonists” value [1] is given as “little selective as well as little efficacious”.
For `NC(=O)CN1CCCC1=O` [Piracetam], the “effect on amnesia induced by hypoxia” value [2] was “inactive”.
With `Cn1c(=O)c2c(ncn2C)n(C)c1=O` [caffeine] the “motor activity and curiosity (exploration activity)” value (shortened to “motor activity and curiosity”) ([3]; FIG. 7 and FIG. 7 bis) was “remarkably increase the motor activity”.
In the case of `CCN(CC)CCNC(=O)c1ccc(N)cc1` [procainamide], the “selectivity and efficacy as antagonists” value [1] is given as “little selective as well as little efficacious”.
For `CC(N)Cc1ccccc1` (stereo not drawn) [amphetamine], the “motor activity and curiosity” value ([3]; FIG. 7 and FIG. 7 bis) was “remarkably increase the motor activity”.
For `COC(=O)[C@H]1[C@@H](OC(=O)c2ccccc2)C[C@@H]2CC[C@H]1N2C` [cocaine], the “motor activity and curiosity” value ([3]; in vivo) was “remarkably increase the motor activity”.
In the case of `Cc1cccc(C)c1OCC(C)N` (stereo not drawn) [mexyletine], the “selectivity and efficacy as antagonists” value [1] is listed as “little selective as well as little efficacious”.
In the case of `CN1CCC[C@H]1c1cccnc1` [nicotine], the “motor activity and curiosity” value ([3]; FIG. 7 and FIG. 7 bis) is reported as “remarkably increase the motor activity”.
